Laboratory results as given in ChEMBL document CHEMBL3044926, “Controlling powdery mildew on cucurbit rootstock seedlings in the greenhouse with fungicides and biofungicides” (Crop Prot, 2012).

Key:
[1] = tested on: Cucurbita maxima x Cucurbita moschata; assay: Phytotoxicity against inter-specific squash hybrid Cucurbita moschata x Cucurbita maxima (Strong tosa) rootstock seedlings; assay type: organism-based; details: in vivo
Lagenaria siceraria [2] = assay: Phytotoxicity against Lagenaria siceraria 'Emphasis' rootstock seedlings assessed as stunting; assay type: organism-based; details: in vivo
[3] = tested on: Cucurbita maxima x Cucurbita moschata; assay: Phytotoxicity against inter-specific squash hybrid Cucurbita moschata x Cucurbita maxima (Strong tosa) rootstock seedlings assessed as stunting; assay type: organism-based; details: in vivo
Lagenaria siceraria [4] = assay: Phytotoxicity against Lagenaria siceraria 'Emphasis' rootstock seedlings; assay type: organism-based; details: in vivo
Podosphaera xanthii [5] = assay: Fungicidal activity against Podosphaera xanthii (powdery mildew) inoculated in inter-specific squash hybrid Strong tosa (Cucurbita moschata x Cucurbita maxima) rootstock seedlings for 7 days prior to drug application assessed as incidence of disease symptoms on hypocotyls or upper or lower sides of cotyledons at 20.6% in 1.36 ml/L applied once measured 7 days post-drug dose under greenhouse …; assay type: functional
Podosphaera xanthii [6] = assay: (§1) Fungicidal activity against Podosphaera xanthii (powdery mildew) inoculated in Lagenaria siceraria Emphasis continuously after first drug application assessed as disease severity on upper surface areas of cotyledons at 20.6% in 1.36 ml/L applied thrice at 5-days intervals measured 5 days after third application under green house conditions (water Rvb = 36.8%); assay type: functional
Podosphaera xanthii [7] = assay: (§2) Fungicidal activity against Podosphaera xanthii (powdery mildew) inoculated in inter-specific squash hybrid Strong tosa (Cucurbita moschata x Cucurbita maxima) rootstock seedlings for 7 days prior to drug application assessed as disease severity on upper surface areas of cotyledonsat 20.6% in 1.36 ml/L applied once measured 7 days post-drug dose under greenhouse conditions (water Rvb = 10.2%); assay type: functional
Podosphaera xanthii [8] = assay: as §1, with “severity” for “severity on upper surface areas of cotyledons”, “53.5%)” for “36.8%)”; assay type: functional
Podosphaera xanthii [9] = assay: as §2, with “lower” for “upper”, “5.1%)” for “10.2%)”; assay type: functional
Podosphaera xanthii [10] = assay: as §1, with “lower” for “upper”, “13.9%)” for “36.8%)”; assay type: functional
Podosphaera xanthii [11] = assay: Fungicidal activity against Podosphaera xanthii (powdery mildew) inoculated in squash (Cucurbita pepo) rootstock seedlings continuously after first drug application assessed as incidence of disease symptoms on hypocotyls or upper or lower sides of cotyledons at 20.6% in 1.36 ml/L applied thrice at 5-days intervals measured 5 days after third application under green house conditions (water Rvb = …; assay type: functional
Podosphaera xanthii [12] = assay: as §2, with “at” for “on upper surface areas of cotyledonsat”, “17.5%)” for “10.2%)”; assay type: functional
Podosphaera xanthii [13] = assay: (§3) Fungicidal activity against Podosphaera xanthii (powdery mildew) inoculated in Lagenaria siceraria Emphasis continuously after first drug application assessed as incidence of disease symptoms on hypocotyls or upper or lower sides of cotyledons at 20.6% in 1.36 ml/L applied thrice at 5-days intervals measured 5 days after third application under green house conditions (water Rvb = 100%); assay type: functional
Podosphaera xanthii [14] = assay: as §1, with “squash (Cucurbita pepo) rootstock seedlings” for “Lagenaria siceraria Emphasis”, “severity” for “severity on upper surface areas of cotyledons”, “3.9%)” for “36.8%)”; assay type: functional
Lagenaria siceraria [15] = assay: Phytotoxicity against Lagenaria siceraria 'Emphasis' rootstock seedlings assessed as stunted growth; assay type: organism-based; details: in vivo
Podosphaera xanthii [16] = assay: as §1, with “lower” for “upper”, “38.7%” for “20.6%”, “0.62” for “1.36”, “13.9%)” for “36.8%)”; assay type: functional
Podosphaera xanthii [17] = assay: as §2, with “lower” for “upper”, “38.7%” for “20.6%”, “0.62” for “1.36”, “5.1%)” for “10.2%)”; assay type: functional
[18] = tested on: Cucurbita maxima x Cucurbita moschata; assay: Phytotoxicity against inter-specific squash hybrid Cucurbita moschata x Cucurbita maxima (Strong tosa) rootstock seedlings assessed as stunted growth; assay type: organism-based; details: in vivo
Podosphaera xanthii [19] = assay: as §1, with “38.7%” for “20.6%”, “0.62” for “1.36”; assay type: functional
Podosphaera xanthii [20] = assay: (§4) Fungicidal activity against Podosphaera xanthii (powdery mildew) inoculated in squash (Cucurbita pepo) rootstock seedlings continuously after first drug application assessed as disease severity at 38.7% in 0.62 ml/L applied thrice at 5-days intervals measured 5 days after third application under green house conditions (water Rvb = 3.9%); assay type: functional
Podosphaera xanthii [21] = assay: as §3, with “38.7%” for “20.6%”, “0.62” for “1.36”; assay type: functional
Podosphaera xanthii [22] = assay: Fungicidal activity against Podosphaera xanthii (powdery mildew) inoculated in inter-specific squash hybrid Strong tosa (Cucurbita moschata x Cucurbita maxima) rootstock seedlings for 7 days prior to drug application assessed as incidence of disease symptoms on hypocotyls or upper or lower sides of cotyledons at 38.7% in 0.62 ml/L applied once measured 7 days post-drug dose under greenhouse …; assay type: functional
Podosphaera xanthii [23] = assay: Fungicidal activity against Podosphaera xanthii (powdery mildew) inoculated in inter-specific squash hybrid Strong tosa (Cucurbita moschata x Cucurbita maxima) rootstock seedlings continuously after first drug application assessed as incidence of disease symptoms on hypocotyls or upper or lower sides of cotyledons at 38.7% in 0.62 ml/L applied thrice at 5-days intervals measured 5 days after …; assay type: functional
[24] = tested on: Cucurbita maxima x Cucurbita moschata; assay: Phytotoxicity against inter-specific squash hybrid Cucurbita moschata x Cucurbita maxima (Strong tosa) rootstock seedlings assessed as seedlings with stunted growth; assay type: organism-based; details: in vivo
Podosphaera xanthii [25] = assay: Fungicidal activity against Podosphaera xanthii (powdery mildew) inoculated in squash (Cucurbita pepo) rootstock seedlings continuously after first drug application assessed as incidence of disease symptoms on hypocotyls or upper or lower sides of cotyledons at 38.7% in 0.62 ml/L applied thrice at 5-days intervals measured 5 days after third application under green house conditions (water Rvb = …; assay type: functional
Podosphaera xanthii [26] = assay: as §2, with “at 38.7%” for “on upper surface areas of cotyledonsat 20.6%”, “0.62” for “1.36”, “17.5%)” for “10.2%)”; assay type: functional
Podosphaera xanthii [27] = assay: as §2, with “38.7%” for “20.6%”, “0.62” for “1.36”; assay type: functional
Lagenaria siceraria [28] = assay: Phytotoxicity against Lagenaria siceraria 'Emphasis' rootstock seedlings assessed as seedlings with stunted growth; assay type: organism-based; details: in vivo
Podosphaera xanthii [29] = assay: Fungicidal activity against Podosphaera xanthii (powdery mildew) inoculated in inter-specific squash hybrid Strong tosa (Cucurbita moschata x Cucurbita maxima) rootstock seedlings continuously after first drug application assessed as disease severity at 38.7% in 0.62 ml/L applied thrice at 5-days intervals measured 5 days after third application under green house conditions (water Rvb = 4.2%); assay type: functional
Podosphaera xanthii [30] = assay: as §4, with “Lagenaria siceraria Emphasis” for “squash (Cucurbita pepo) rootstock seedlings”, “53.5%)” for “3.9%)”; assay type: functional
Podosphaera xanthii [31] = assay: as §2, with “lower” for “upper”, “46.1%” for “20.6%”, “1.50 g/L” for “1.36 ml/L”, “5.1%)” for “10.2%)”; assay type: functional, organism-based
Podosphaera xanthii [32] = assay: as §4, with “46.1%” for “38.7%”, “1.50 g/L” for “0.62 ml/L”; assay type: functional, organism-based
Podosphaera xanthii [33] = assay: Fungicidal activity against Podosphaera xanthii (powdery mildew) inoculated in inter-specific squash hybrid Strong tosa (Cucurbita moschata x Cucurbita maxima) rootstock seedlings for 7 days prior to drug application assessed as incidence of disease symptoms on hypocotyls or upper or lower sides of …; assay type: functional, organism-based
Podosphaera xanthii [34] = assay: as §2, with “at 46.1%” for “on upper surface areas of cotyledonsat 20.6%”, “1.50 g/L” for “1.36 ml/L”, “17.5%)” for “10.2%)”; assay type: functional, organism-based
Podosphaera xanthii [35] = assay: as §2, with “46.1%” for “20.6%”, “1.50 g/L” for “1.36 ml/L”; assay type: functional, organism-based
Podosphaera xanthii [36] = assay: Fungicidal activity against Podosphaera xanthii (powdery mildew) inoculated in squash (Cucurbita pepo) rootstock seedlings continuously after first drug application assessed as incidence of disease symptoms on hypocotyls or upper or lower sides of cotyledons at 46.1% in 1.50 g/L applied thrice at …; assay type: functional, organism-based
Podosphaera xanthii [37] = assay: Fungicidal activity against Podosphaera xanthii (powdery mildew) inoculated in inter-specific squash hybrid Strong tosa (Cucurbita moschata x Cucurbita maxima) rootstock seedlings for 7 days prior to drug application assessed as incidence of disease symptoms on hypocotyls or upper or lower sides of cotyledons at 98.2% in 11.99 g/L applied once measured 7 days post-drug dose under greenhouse …; assay type: functional
Podosphaera xanthii [38] = assay: as §4, with “98.2%” for “38.7%”, “11.99 g/L” for “0.62 ml/L”; assay type: functional
Podosphaera xanthii [39] = assay: as §3, with “98.2%” for “20.6%”, “11.99 g/L” for “1.36 ml/L”; assay type: functional
Podosphaera xanthii [40] = assay: as §1, with “lower” for “upper”, “98.2%” for “20.6%”, “11.99 g/L” for “1.36 ml/L”, “13.9%)” for “36.8%)”; assay type: functional
Podosphaera xanthii [41] = assay: as §2, with “lower” for “upper”, “98.2%” for “20.6%”, “11.99 g/L” for “1.36 ml/L”, “5.1%)” for “10.2%)”; assay type: functional
Podosphaera xanthii [42] = assay: Fungicidal activity against Podosphaera xanthii (powdery mildew) inoculated in squash (Cucurbita pepo) rootstock seedlings continuously after first drug application assessed as incidence of disease symptoms on hypocotyls or upper or lower sides of cotyledons at 98.2% in 11.99 g/L applied thrice at 5-days intervals measured 5 days after third application under green house conditions (water Rvb = …; assay type: functional
Podosphaera xanthii [43] = assay: as §1, with “98.2%” for “20.6%”, “11.99 g/L” for “1.36 ml/L”; assay type: functional
Podosphaera xanthii [44] = assay: as §2, with “98.2%” for “20.6%”, “11.99 g/L” for “1.36 ml/L”; assay type: functional
Podosphaera xanthii [45] = assay: as §1, with “severity” for “severity on upper surface areas of cotyledons”, “98.2%” for “20.6%”, “11.99 g/L” for “1.36 ml/L”, “53.5%)” for “36.8%)”; assay type: functional
Podosphaera xanthii [46] = assay: as §2, with “at 98.2%” for “on upper surface areas of cotyledonsat 20.6%”, “11.99 g/L” for “1.36 ml/L”, “17.5%)” for “10.2%)”; assay type: functional

## O=C([O-])O.[K+] [POTASSIUM BICARBONATE]
[1]
  Activity: Non-toxic
Lagenaria siceraria [2]
  Activity: Non-toxic
[3]
  Activity: Non-toxic
Lagenaria siceraria [4]
  Activity: Non-toxic

## CC(C)CC(C)c1sccc1NC(=O)c1cn(C)nc1C(F)(F)F (configuration not stated) [PENTHIOPYRAD]
Podosphaera xanthii [5]
  Activity: 2.3%
Podosphaera xanthii [6]
  Activity: 0.9%
Podosphaera xanthii [7]
  Activity: 0%
Lagenaria siceraria [2]
  Activity: Toxic
Podosphaera xanthii [8]
  Activity: 1.3%
Podosphaera xanthii [9]
  Activity: 0.03%
Podosphaera xanthii [10]
  Activity: 0.3%
Podosphaera xanthii [11]
  Activity: 0%
[3]
  Activity: Toxic
Podosphaera xanthii [12]
  Activity: 0.05%
Podosphaera xanthii [13]
  Activity: 14.6%
Podosphaera xanthii [14]
  Activity: 0%

## CC(C)(C)C(O)(CCc1ccc(Cl)cc1)Cn1cncn1 (configuration not stated) [TEBUCONAZOLE]
Lagenaria siceraria [15]
  inhibition (INH): 33%
Podosphaera xanthii [16]
  Activity: 0%
Podosphaera xanthii [17]
  Activity: 0.2%
[18]
  inhibition (INH): 33%
Podosphaera xanthii [19]
  Activity: 0.5%
Podosphaera xanthii [20]
  Activity: 0%
Podosphaera xanthii [21]
  Activity: 5.6%
Podosphaera xanthii [22]
  Activity: 34.9%
Podosphaera xanthii [23]
  Activity: 0%
[24]
  Activity: 71%
Podosphaera xanthii [25]
  Activity: 0%
Podosphaera xanthii [26]
  Activity: 0.5%
Podosphaera xanthii [27]
  Activity: 0.2%
Lagenaria siceraria [28]
  Activity: 100%
Podosphaera xanthii [29]
  Activity: 0.005%
Podosphaera xanthii [30]
  Activity: 0.7%

## COPPER HYDROXIDE
Podosphaera xanthii [31]
  Activity: 4.3%
Podosphaera xanthii [32]
  Activity: 0.21%
Podosphaera xanthii [33]
  Activity: 97.7%
Podosphaera xanthii [34]
  Activity: 13.6%
Podosphaera xanthii [35]
  Activity: 8.2%
Podosphaera xanthii [36]
  Activity: 9.2%

## S1SSSSSSS1 [SULFUR]
Podosphaera xanthii [37]
  Activity: 14.6%
Podosphaera xanthii [38]
  Activity: 0.02%
Podosphaera xanthii [39]
  Activity: 34.9%
Podosphaera xanthii [40]
  Activity: 0.7%
[1]
  Activity: Non-toxic
Lagenaria siceraria [2]
  Activity: Non-toxic
Podosphaera xanthii [41]
  Activity: 0.7%
Podosphaera xanthii [42]
  Activity: 0%
Podosphaera xanthii [43]
  Activity: 3%
Podosphaera xanthii [44]
  Activity: 0.03%
Podosphaera xanthii [45]
  Activity: 3.7%
[3]
  Activity: Non-toxic
Podosphaera xanthii [46]
  Activity: 0.9%
Lagenaria siceraria [4]
  Activity: Non-toxic
